Results as given in PubChem BioAssay AID1963851 (Molecular Pharmacology Branch, DTP, NCI, 2024).

System: 188146-221-R-J1-PDC complex spheroid viability
Assay: Anticancer human tumor 188146-221-R-J1-PDC patient-derived colon adenocarcinoma cell line growth inhibition [POLQ]
Settings: for IC50: curve of first compound; for viability, T/C: stronger effect = lower value
Description: Multicellular complex tumor spheroid response to Polymerase (POL) inhibitors (novobiocin, ART-558, RP6685) in combination with a variety of drugs and investigational agents in selected tumor cell lines
The POL inhibitors (novobiocin, ART-558, and RP6685) were evaluated both individually and in combination with standard of care and investigational anticancer small molecules within a complex spheroid model of solid tumors. . Complex spheroids include a stromal component modeled by human endothelial cells (HUVEC) and fibroblasts modeled by human mesenchymal stem cells (MSCs). The concentration ranges selected for each drug and investigational agent were based upon clinically achievable concentrations if the clinical Cmax of the agent was known.
Compounds. The drugs and investigational agents: novobiocin (NSC847541), ART-558 (NSC835418), RP-6685 (NSC848927), peposertib (NSC802822), ceralasertib (NSC780249), elimusertib (NSC800525), camonsertib (NSC841442), AZD-1390 (NSC803789), olaparib (NSC753686), talazoparib (NSC767125), rucaparib (NSC756644), sotorasib (NSC818433), MRTX-1133 (NSC836407), SN-38 (NSC673596), topotecan (NSC609699), epotoside (NSC141540), doxorubicin (NSC123127), gemcitabine (NSC613327), 5-fluorouracil (NSC19893), paclitaxel (NSC125973), vemurafenib (NSC761431), MSA-2 (NSC828583), SN-011 (NSC837082), adavosertib (NSC754352), prexasertib (NSC758257), carboplatin (NSC241240) and oxaliplatin (NSC266046), were obtained from the National Cancer Institute (NCI) Developmental Therapeutics Program Chemical Repository (21). The FDA-approved anticancer drug set is available from the Developmental Therapeutics Program at https://dtp.cancer.gov/organization/dscb/obtaining/. […] The stock solutions were prepared in dimethyl sulfoxide (DMSO, Sigma-Aldrich, St. Louis, MO, cat. D2650), except for the platinum compounds which were prepared in saline (Quality Biological, Gaithersburg, MD, cat. 114-055-101), at 800-fold the tested concentration and stored at -70 degrees C prior to their use. All drugs and investigational agents were tested over a range starting from a high concentration at or near the clinical Cmax and decreasing in half-log increments. If the clinical Cmax for an agent had not been determined, the highest concentration tested was 10 microM, except for SN-38, which was tested at a high concentration of 1 microM.
Cell Culture. All cells were maintained in an incubator at 37 degrees C and 5% CO2 with 95% humidity. The PDC lines were cultured according to standard operating procedures established by the NCI PDMR (https://pdmr.cancer.gov). Table 3 of the manuscript, lists the cell lines along with the number of the three cell types plated to form the mct-spheroids and media for tumor cell growth. After thawing, all PDC lines, except 997537-175-T-J1-PDC and 415267-285-R-J2-PDC, were cultured in Matrigel-coated flasks prepared with a working solution of 1X Ham's F-12 nutrient mix, without supplementation (Thermo Fisher Scientific, cat. 11765054), 100 U/mL penicillin-streptomycin (Thermo Fisher Scientific, cat. 15140122), and 2.5% Matrigel (Corning Inc., Corning, NY, cat. 354248) for the first three passages. The two PDC lines 997537-175-T-J1-PDC and 415267-285-R-J2-PDC were cultured on uncoated flasks. The 857933-349-R-J2-PDC line was cultured in 6C/Colon 1B media containing advanced DMEM/F-12 (Thermo Fisher Scientific, cat. 12634028), 10 mM HEPES (Thermo Fisher Scientific, cat. 15630080), 1X GlutaMAX supplement (Thermo Fisher Scientific, cat. 35050061), 0.1 mg/mL primocin (InvivoGen, San Diego, CA, cat. ant-pm-2), 10% defined fetal bovine serum, heat inactivated (HyClone Laboratories Inc., Logan, UT, cat. SH30070.03HI), 50% L-WRN conditioned media (ATCC, cat. CRL-3276), 1.25 mM N-Acetyl-L-cysteine (Sigma-Aldrich, cat. A9165), 10 mM nicotinamide (Sigma-Aldrich, cat. N0636), 1X B-27 supplement (Thermo Fisher Scientific, cat. 17504044), 1X N-2 supplement (Thermo Fisher Scientific, cat. […]
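Further: spheroids exposed to compounds for seven days.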
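Wherever viability, T/C is given: 100% = DMSO vehicle control viability.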

With `CC(=O)O[C@H]1C(=O)[C@@]2(C)[C@H]([C@H](OC(=O)c3ccccc3)[C@]3(O)C[C@H](OC(=O)[C@H](O)[C@@H](NC(=O)c4ccccc4)c4ccccc4)C(C)=C1C3(C)C)[C@]1(OC(C)=O)CO[C@@H]1C[C@@H]2O` + Cc1cccc(N(C)C(=O)C2C(O)CCN2c2nc(C)cc(C(F)(F)F)c2C#N)c1 the IC50 (second compound 0.0316 µM) was 14.8 nM, the IC50 (second compound 0.1 µM) was 13.4 nM and the IC50 (second compound 0.316 µM) was 11.3 nM. The IC50 (second compound 1 µM) was 13.5 nM, the IC50 (second compound 3.16 µM) was 9.98 nM and the IC50 (second compound 10 µM) was 9.95 nM. For the same molecule, the viability, T/C (second compound 0.0316 µM, first compound 0.00949 µM) was 69%, the viability, T/C (second compound 0.0316 µM, first compound 0.03 µM) was 20.6% and the viability, T/C (second compound 0.0316 µM, first compound 0.0949 µM) was 11.7%. The viability, T/C (second compound 0.0316 µM, first compound 0.3 µM) was 12.8%, the viability, T/C (second compound 0.0316 µM, first compound 0.949 µM) was 13.3% and the viability, T/C (second compound 0.0316 µM, first compound 3 µM) was 13.3%. It also gave a viability, T/C (second compound 0.1 µM, first compound 0.00949 µM) of 61.8%, a viability, T/C (second compound 0.1 µM, first compound 0.03 µM) of 23.3% and a viability, T/C (second compound 0.1 µM, first compound 0.0949 µM) of 12%. The viability, T/C (second compound 0.1 µM, first compound 0.3 µM) was 11.6%, the viability, T/C (second compound 0.1 µM, first compound 0.949 µM) was 12.8% and the viability, T/C (second compound 0.1 µM, first compound 3 µM) was 12.5%. The viability, T/C (second compound 0.316 µM, first compound 0.00949 µM) was 55%, the viability, T/C (second compound 0.316 µM, first compound 0.03 µM) was 22.4% and the viability, T/C (second compound 0.316 µM, first compound 0.0949 µM) was 13.6%. It also gave a viability, T/C (second compound 0.316 µM, first compound 0.3 µM) of 12.6%, a viability, T/C (second compound 0.316 µM, first compound 0.949 µM) of 13.3% and a viability, T/C (second compound 0.316 µM, first compound 3 µM) of 11.6%. The viability, T/C (second compound 1 µM, first compound 0.00949 µM) was 63.3%, the viability, T/C (second compound 1 µM, first compound 0.03 µM) was 19.4% and the viability, T/C (second compound 1 µM, first compound 0.0949 µM) was 13.4%. The viability, T/C (second compound 1 µM, first compound 0.3 µM) was 11%, the viability, T/C (second compound 1 µM, first compound 0.949 µM) was 13% and the viability, T/C (second compound 1 µM, first compound 3 µM) was 13.8%. The viability, T/C (second compound 3.16 µM, first compound 0.00949 µM) was 51.5%, the viability, T/C (second compound 3.16 µM, first compound 0.03 µM) was 17.5% and the viability, T/C (second compound 3.16 µM, first compound 0.0949 µM) was 14.1%. It also gave a viability, T/C (second compound 3.16 µM, first compound 0.3 µM) of 12.1%, a viability, T/C (second compound 3.16 µM, first compound 0.949 µM) of 13.2% and a viability, T/C (second compound 3.16 µM, first compound 3 µM) of 16.4%. For the same molecule, the viability, T/C (second compound 10 µM, first compound 0.00949 µM) was 51.4%, the viability, T/C (second compound 10 µM, first compound 0.03 µM) was 17.4% and the viability, T/C (second compound 10 µM, first compound 0.0949 µM) was 14.1%. For the same molecule, the viability, T/C (second compound 10 µM, first compound 0.3 µM) was 14.8%, the viability, T/C (second compound 10 µM, first compound 0.949 µM) was 14.6% and the viability, T/C (second compound 10 µM, first compound 3 µM) was 14.5%.
